Values after ≈ are worked out from the molar mass of the structure shown. Starred links: 1 amine or outer side, 2 acyl side, 3 side chain; linkers in the order of their positions; H or OH if unused. Positions of bridges follow the written chain, without caps; N, C: chain ends. Residues, ends and D or L forms follow the SMILES beside them. *: point of attachment. C18 diacid = O=C(O)CCCCCCCCCCCCCCCCC(=O)*; γGlu = O=C(O)[C@H](CCC(=O)[*:2])N[*:1]; X1 = O=C(CCCCCCCCCCCCCCCCc1nnn[nH]1)*; AEEA = NCCOCCOCC(=O)O
Assay: Solubility of CNP compounds at pH 4.0 and pH 6.5
Format: physicochemical
Conditions: 5 mM sodium acetate, 250 mM glycerol, pH 4.0, room temperature; read-out: Solubility at pH 4.0
How it was run: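 Supernatant peptide concentration was quantified by CAD after overnight room-temperature equilibration of incompletely dissolved samples. Nominal loading was ≥4000-5000 nmol/mL. Media were pH 4.0 sodium acetate 5 mM/glycerol 250 mM, or pH 6.5 sodium phosphate 8 mM/glycerol 23 mg/mL reached by stepwise NaOH addition.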

`CC[C@H](C)[C@@H]1NC(=O)[C@H](CCCNC(=N)N)NC(=O)[C@H](CC(=O)O)NC(=O)[C@H](CC(C)C)NC(=O)[C@@H]2CCCN2C(=O)[C@H](CC(C)C)NC(=O)CNC(=O)[C@H](Cc2ccccc2)NC(=O)[C@@H](NC(=O)CNC(=O)[C@H](CO)NC(=O)[C@H](CO)NC(=O)[C@@H](NC(=O)CNC(=O)[C@H](CCCCN)NC(=O)[C@H](CCCCN)NC(=O)[C@H](CCC(N)=O)NC(=O)[C@H](C)NC(=O)CNC(=O)[C@H](Cc2c[nH]cn2)NC(=O)[C@H](Cc2ccc(O)cc2)NC(=O)[C@H](CCCCN)NC(=O)[C@H](CCCNC(=N)N)NC(=O)[C@H](C)NC(=O)COCCOCCNC(=O)COCCOCCNC(=O)CC[C@H](NC(=O)CC[C@H](NC(=O)CC[C@H](NC(=O)CCCCCCCCCCCCCCCCC(=O)O)C(=O)O)C(=O)O)C(=O)O)C(C)C)CSSC[C@@H](C(=O)O)NC(=O)CNC(=O)[C@H](CC(C)C)NC(=O)CNC(=O)[C@H](CO)NC(=O)[C@H](CC(C)C)NC(=O)[C@H](CO)NC(=O)CNC1=O` [compound 1422] ({C18 diacid-γGlu-γGlu-γGlu-AEEA-AEEA}-ARKYHGAQKKGVSSGCFGLPLDRIGSLSGLGC-OH; disulfide 16-32) and `CC[C@H](C)[C@@H]1NC(=O)[C@H](CCCNC(=N)N)NC(=O)[C@H](CC(=O)O)NC(=O)[C@H](CC(C)C)NC(=O)[C@@H]2CCCN2C(=O)[C@H](CC(C)C)NC(=O)CNC(=O)[C@H](Cc2ccccc2)NC(=O)[C@@H](NC(=O)CNC(=O)[C@H](CCC(N)=O)NC(=O)[C@H](CO)NC(=O)[C@H](CC(C)C)NC(=O)CNC(=O)[C@H](CO)NC(=O)[C@H](CCCCN)NC(=O)[C@H](CCC(N)=O)NC(=O)[C@H](C)NC(=O)CNC(=O)[C@H](Cc2c[nH]cn2)NC(=O)[C@H](Cc2ccc(O)cc2)NC(=O)[C@H](CCCCN)NC(=O)[C@H](CCCNC(=N)N)NC(=O)[C@H](C)NC(=O)COCCOCCNC(=O)COCCOCCNC(=O)CC[C@H](NC(=O)CC[C@H](NC(=O)CCCCCCCCCCCCCCCCc2nnn[nH]2)C(=O)O)C(=O)O)CSSC[C@@H](C(=O)O)NC(=O)CNC(=O)[C@H](CC(C)C)NC(=O)CNC(=O)[C@H](CO)NC(=O)[C@H](CC(C)C)NC(=O)[C@H](CO)NC(=O)CNC1=O` [compound 1426] ({X1-γGlu-γGlu-AEEA-AEEA}-ARKYHGAQKSGLSQGCFGLPLDRIGSLSGLGC-OH; disulfide 16-32) are within 1.5-fold of each other in solubility: 8.29 mM (≈ 35.1 mg/mL) for the first, 11.2 mM (≈ 46.6 mg/mL) for the second.

Same assay, conditions: 8 mM sodium phosphate, 23 mg/mL glycerol, pH 6.5, room temperature; read-out: Solubility at pH 6.5

`CC[C@H](C)[C@@H]1NC(=O)[C@H](CCCNC(=N)N)NC(=O)[C@H](CC(=O)O)NC(=O)[C@H](CC(C)C)NC(=O)[C@@H]2CCCN2C(=O)[C@H](CC(C)C)NC(=O)CNC(=O)[C@H](Cc2ccccc2)NC(=O)[C@@H](NC(=O)CNC(=O)[C@H](CO)NC(=O)[C@H](CO)NC(=O)[C@H](CC(C)C)NC(=O)CNC(=O)[C@H](CCCCN)NC(=O)[C@H](CCCCN)NC(=O)[C@H](CCC(N)=O)NC(=O)[C@H](C)NC(=O)CNC(=O)[C@H](CCC(=O)O)NC(=O)[C@H](Cc2ccc(O)cc2)NC(=O)COCCOCCNC(=O)COCCOCCNC(=O)COCCOCCNC(=O)COCCOCCNC(=O)CC[C@H](NC(=O)CCCCCCCCCCCCCCCCC(=O)O)C(=O)O)CSSC[C@@H](C(=O)O)NC(=O)CNC(=O)[C@H](CC(C)C)NC(=O)CNC(=O)[C@H](CO)NC(=O)[C@H](CC(C)C)NC(=O)[C@H](CO)NC(=O)CNC1=O` [compound 1392] ({C18 diacid-γGlu-AEEA-AEEA-AEEA-AEEA}-YEGAQKKGLSSGCFGLPLDRIGSLSGLGC-OH; disulfide 13-29) and `CC[C@H](C)[C@@H]1NC(=O)[C@H](CCCNC(=N)N)NC(=O)[C@H](CC(=O)O)NC(=O)[C@H](CC(C)C)NC(=O)[C@@H]2CCCN2C(=O)[C@H](CC(C)C)NC(=O)CNC(=O)[C@H](Cc2ccccc2)NC(=O)[C@@H](NC(=O)CNC(=O)[C@H](CCC(N)=O)NC(=O)[C@H](CO)NC(=O)CNC(=O)CNC(=O)[C@H](CCCCN)NC(=O)[C@H](Cc2c[nH]cn2)NC(=O)[C@H](CCC(N)=O)NC(=O)[C@H](C)NC(=O)CNC(=O)[C@H](CCC(=O)O)NC(=O)[C@H](Cc2ccc(O)cc2)NC(=O)[C@H](CCCCN)NC(=O)[C@H](CCCNC(=N)N)NC(=O)[C@H](C)NC(=O)COCCOCCNC(=O)COCCOCCNC(=O)COCCOCCNC(=O)COCCOCCNC(=O)CC[C@H](NC(=O)CC[C@H](NC(=O)CCCCCCCCCCCCCCCCC(=O)O)C(=O)O)C(=O)O)CSSC[C@@H](C(=O)O)NC(=O)CNC(=O)[C@H](CC(C)C)NC(=O)CNC(=O)[C@H](CO)NC(=O)[C@H](CC(C)C)NC(=O)[C@H](CO)NC(=O)CNC1=O` [compound 1432] ({C18 diacid-γGlu-γGlu-AEEA-AEEA-AEEA-AEEA}-ARKYEGAQHKGGSQGCFGLPLDRIGSLSGLGC-OH; disulfide 16-32) are within 1.5-fold of each other in solubility: 9.88 mM (≈ 38.7 mg/mL) for the first, 9.83 mM (≈ 43.2 mg/mL) for the second.

`CC[C@H](C)[C@@H]1NC(=O)[C@H](CCCNC(=N)N)NC(=O)[C@H](CC(=O)O)NC(=O)[C@H](CC(C)C)NC(=O)[C@@H]2CCCN2C(=O)[C@H](CC(C)C)NC(=O)CNC(=O)[C@H](Cc2ccccc2)NC(=O)[C@@H](NC(=O)CNC(=O)[C@H](CCC(N)=O)NC(=O)[C@H](CO)NC(=O)[C@H](CC(C)C)NC(=O)CNC(=O)[C@H](CCCCN)NC(=O)[C@H](CCCCN)NC(=O)[C@H](CCC(N)=O)NC(=O)[C@H](C)NC(=O)CNC(=O)[C@H](CCCCN)NC(=O)[C@H](Cc2ccc(O)cc2)NC(=O)[C@H](CCCCN)NC(=O)[C@H](CCCNC(=N)N)NC(=O)[C@H](C)NC(=O)[C@H](CCC(N)=O)NC(=O)[C@@H]2CCCN2C(=O)[C@H](Cc2c[nH]cn2)NC(=O)[C@H](CCC(=O)O)NC(=O)[C@H](CCC(N)=O)NC(=O)COCCOCCNC(=O)COCCOCCNC(=O)CC[C@H](NC(=O)CC[C@H](NC(=O)CC[C@H](NC(=O)CC[C@H](NC(=O)CC[C@H](NC(=O)CC[C@H](NC(=O)CCCCCCCCCCCCCCCCC(=O)O)C(=O)O)C(=O)O)C(=O)O)C(=O)O)C(=O)O)C(=O)O)CSSC[C@@H](C(=O)O)NC(=O)CNC(=O)[C@H](CC(C)C)NC(=O)CNC(=O)[C@H](CO)NC(=O)[C@H](CC(C)C)NC(=O)[C@H](CO)NC(=O)CNC1=O` [compound 1402] ({C18 diacid-γGlu-γGlu-γGlu-γGlu-γGlu-γGlu-AEEA-AEEA}-QEHPQARKYKGAQKKGLSQGCFGLPLDRIGSLSGLGC-OH; disulfide 21-37) and `CC[C@H](C)[C@@H]1NC(=O)[C@H](CCCNC(=N)N)NC(=O)[C@H](CC(=O)O)NC(=O)[C@H](CC(C)C)NC(=O)[C@@H]2CCCN2C(=O)[C@H](CC(C)C)NC(=O)CNC(=O)[C@H](Cc2ccccc2)NC(=O)[C@@H](NC(=O)CNC(=O)[C@H](CCC(N)=O)NC(=O)[C@H](CO)NC(=O)[C@H](CC(C)C)NC(=O)CNC(=O)[C@H](CCCCN)NC(=O)[C@H](CCCCN)NC(=O)[C@H](CCC(N)=O)NC(=O)[C@H](C)NC(=O)CNC(=O)[C@H](CCCCN)NC(=O)[C@H](Cc2ccc(O)cc2)NC(=O)[C@H](CCCCN)NC(=O)[C@H](CCCNC(=N)N)NC(=O)[C@H](C)NC(=O)[C@H](CCC(N)=O)NC(=O)[C@@H]2CCCN2C(=O)[C@H](Cc2c[nH]cn2)NC(=O)[C@H](CCC(=O)O)NC(=O)[C@H](CCC(N)=O)NC(=O)COCCOCCNC(=O)COCCOCCNC(=O)COCCOCCNC(=O)COCCOCCNC(=O)CC[C@H](NC(=O)CC[C@H](NC(=O)CC[C@H](NC(=O)CC[C@H](NC(=O)CC[C@H](NC(=O)CC[C@H](NC(=O)CCCCCCCCCCCCCCCCC(=O)O)C(=O)O)C(=O)O)C(=O)O)C(=O)O)C(=O)O)C(=O)O)CSSC[C@@H](C(=O)O)NC(=O)CNC(=O)[C@H](CC(C)C)NC(=O)CNC(=O)[C@H](CO)NC(=O)[C@H](CC(C)C)NC(=O)[C@H](CO)NC(=O)CNC1=O` [compound 1404] ({C18 diacid-γGlu-γGlu-γGlu-γGlu-γGlu-γGlu-AEEA-AEEA-AEEA-AEEA}-QEHPQARKYKGAQKKGLSQGCFGLPLDRIGSLSGLGC-OH; disulfide 21-37) are within 1.5-fold of each other in solubility: 10 mM (≈ 53 mg/mL) for the first, 6.88 mM (≈ 38.4 mg/mL) for the second.

Compared with `CC[C@H](C)[C@@H]1NC(=O)[C@H](CCCNC(=N)N)NC(=O)[C@H](CC(=O)O)NC(=O)[C@H](CC(C)C)NC(=O)[C@@H]2CCCN2C(=O)[C@H](CC(C)C)NC(=O)CNC(=O)[C@H](Cc2ccccc2)NC(=O)[C@@H](NC(=O)CNC(=O)[C@H](CCC(N)=O)NC(=O)[C@H](CO)NC(=O)[C@H](CC(C)C)NC(=O)CNC(=O)[C@H](CCCCN)NC(=O)[C@H](CCCCN)NC(=O)[C@H](CCC(N)=O)NC(=O)[C@H](C)NC(=O)CNC(=O)[C@H](CCCCN)NC(=O)[C@H](Cc2ccc(O)cc2)NC(=O)[C@H](CCCCN)NC(=O)[C@H](CCCNC(=N)N)NC(=O)[C@H](C)NC(=O)[C@H](CCC(N)=O)NC(=O)[C@@H]2CCCN2C(=O)[C@H](Cc2c[nH]cn2)NC(=O)[C@H](CCC(=O)O)NC(=O)[C@H](CCC(N)=O)NC(=O)COCCOCCNC(=O)COCCOCCNC(=O)COCCOCCNC(=O)COCCOCCNC(=O)CC[C@H](NC(=O)CC[C@H](NC(=O)CC[C@H](NC(=O)CC[C@H](NC(=O)CC[C@H](NC(=O)CCCCCCCCCCCCCCCCC(=O)O)C(=O)O)C(=O)O)C(=O)O)C(=O)O)C(=O)O)CSSC[C@@H](C(=O)O)NC(=O)CNC(=O)[C@H](CC(C)C)NC(=O)CNC(=O)[C@H](CO)NC(=O)[C@H](CC(C)C)NC(=O)[C@H](CO)NC(=O)CNC1=O` [compound 1406] ({C18 diacid-γGlu-γGlu-γGlu-γGlu-γGlu-AEEA-AEEA-AEEA-AEEA}-QEHPQARKYKGAQKKGLSQGCFGLPLDRIGSLSGLGC-OH; disulfide 21-37), `CC[C@H](C)[C@@H]1NC(=O)[C@H](CCCNC(=N)N)NC(=O)[C@H](CC(=O)O)NC(=O)[C@H](CC(C)C)NC(=O)[C@@H]2CCCN2C(=O)[C@H](CC(C)C)NC(=O)CNC(=O)[C@H](Cc2ccccc2)NC(=O)[C@@H](NC(=O)CNC(=O)[C@H](CCCCN)NC(=O)[C@H](CO)NC(=O)[C@@H](NC(=O)CNC(=O)[C@@H](NC(=O)[C@H](Cc2c[nH]cn2)NC(=O)[C@H](CCC(N)=O)NC(=O)[C@H](C)NC(=O)CNC(=O)[C@H](Cc2c[nH]cn2)NC(=O)[C@H](Cc2ccc(O)cc2)NC(=O)[C@H](CCCCN)NC(=O)[C@H](CCCNC(=N)N)NC(=O)[C@H](C)NC(=O)COCCOCCNC(=O)COCCOCCNC(=O)CC[C@H](NC(=O)CC[C@H](NC(=O)CC[C@H](NC(=O)CCCCCCCCCCCCCCCCC(=O)O)C(=O)O)C(=O)O)C(=O)O)[C@@H](C)O)C(C)C)CSSC[C@@H](C(=O)O)NC(=O)CNC(=O)[C@H](CC(C)C)NC(=O)CNC(=O)[C@H](CO)NC(=O)[C@H](CC(C)C)NC(=O)[C@H](CO)NC(=O)CNC1=O` [compound 1420] ({C18 diacid-γGlu-γGlu-γGlu-AEEA-AEEA}-ARKYHGAQHTGVSKGCFGLPLDRIGSLSGLGC-OH; disulfide 16-32) is 4-fold lower in solubility: 5.67 mM (≈ 30.9 mg/mL) for the first, 1.41 mM (≈ 6 mg/mL) for the second.

Source: US20240209028A1, “CNP COMPOUNDS” (priority 2022, published 2024)
